From patent publication US8686022B2, “7-(piperazine-1-ymethyl)-1H-indole-2-carboxylic acid (phenyl)-amide derivatives and allied compounds as p38 MAP kinase inhibitors for the treatment of respiratory diseases” (Boehringer Ingelheim International GmbH, priority 2008, dated 2014)
Values after ≈ are worked out from the molar mass of the structure shown.

What was measured:
p38 MAP-kinase = p38 MAP-kinase (Homo sapiens, UniProt Q16539); assay: p38 MAP-kinase enzymatic assay (phosphorylation of GST-tagged ATF2, chemoluminescence); type: biochemical; details: inhibitor concentration 1 μM; activated p38 MAP-kinase 1 nM; ATP 100 μM; read-out: p38 (% Inh @ 1 μM)
Protocol: In this, the amount of a substrate phosphorylated by the kinase is quantified. The test is carried out as follows:
The kinase reaction is carried out in the presence of HEPES (20 mM, pH 7), MgCl2 (10 mM), DTT (1 mM) and TWEEN20 (0.01%). First, dimethylsulphoxide or inhibitor (final concentration: 1 μM) dissolved in dimethylsulphoxide are placed in a reaction vessel. Then the activated p38 MAP-kinase (final concentration 1 nM) is added and the mixture is incubated for 4 h at ambient temperature. Then a mixture of substrate (GST-tagged ATF2) and ATP is added and everything is incubated together for a further hour (final concentration ATP: 100 μM; final concentration ATF2: 10 nM).
The concentration of phosphorylated ATF2 is quantified by chemoluminescence-induced light emission. For this, a glutathione donor bead (final concentration: 5 μg/ml) which binds to the gluthathione on the ATF2 and phospho-ATF2 antibodies are added to the reaction mixture (final concentration: 3 nM; this binds the phosphate group added by the kinase reaction) to which a Protein A Acceptor Bead (final concentration: 5 μg/ml) binds. These components are dissolved in a buffer which contains 20 mM HEPES pH 7.0, 200 mM NaCL, 80 mM EDTA as well as 0.3% BSA. This reaction mixture is incubated in the dark for 1 hour at ambient temperature. When these beads come physically close, visible light is emitted which is measured in a photometer at 520-620 nm.
To determine the inhibitory activity of the compounds according to the invention a calculation is made to determine the percentage by which the kinase activity is inhibited at a fixed inhibitor concentration of 1 μM. The maximum activity is determined by non-inhibited kinase. The minimum activity or nonspecific background activity is determined using a reaction mixture without kinase.
Table 2 summarises the degree of inhibition of the enzyme p38 MAP-kinase—as described hereinbefore—mediated by the compounds according to the invention detailed in the section “Preparation of the final compounds”.

cytochrome P450 2C9 = cytochrome P450 2C9 (Homo sapiens, UniProt P11712); assay: Determining the cyp2C9 activity (O-demethylation of [O-methyl-14C]-naproxen); type: in vitro ADME; details: human recombinant cytochrome P450 2C9; 37° C.; <0.4 μM when inhibition >50% at lowest concentration; read-out: CYP 2C9 IC50
Protocol: Determining the cyp2C9 Activity:
The assay is carried out in a robot system with 96-well plates. The final incubation volume is 200 μl of TRIS-Puffer (0.1 M), magnesium chloride (5 mM), recombinant protein (40 pmol/ml), ^14C-labelled naproxen (80 μM) and the test compound in one of 4 concentrations (50 μM, 10 μM, 2 μM and 0.4 μM) as a duplicate in each case. After a short preincubation period the reactions are started by the addition of the cofactor (NADPH, 1 mM) and ended after 15 min by the addition of 50 μl of a 10% aqueous trichloroacetic acid solution. One aliquot of the incubate is transferred onto a 96-well solid phase extraction plate and extracted. The ^14C-formaldehyde formed during the reaction is not retained on the solid phase extraction plate and is thus separated from the unmetabolised substrate by washing the solid phase extraction plate with water. One aliquot of the eluate is transferred into a well plate suitable for liquid scintillation. […] The IC50 is determined by the least squares method using the following formula: control activity=(100% control activity/(1+(I/IC50)S))−B where I=Inhibitor concentration S=Pitch B=Background activity
When the inhibition of the reaction is >50% even at the lowest concentration of the test compound, the IC50 is given as <0.4 μM.

[1] = Determining the solubility (saturated solution in McIlvaine buffer pH 7.4, UV spectroscopy); type: physicochemical; details: pH 7.4, aqueous buffer, thermodynamic from solid, shaken 2 hours, 0.75 mg solid in 0.75 ml
Protocol: Determining the Solubility:
Saturated solutions are prepared in suitable well dishes by adding 0.75 ml of a McIlvaine buffer (pH 7.4) to the well in question containing 0.75 mg of solid of an active substance. The wells are shaken for 2 hours and then filtration is carried out through a suitable filter membrane (typically polytetrafluoroethylene with a pore size of 0.45 μm). Filter absorption is prevented by discarding the first few drops of filtrate. The amount of active substance dissolved is determined by UV spectroscopy.

Chain of p38 MAP-kinase (Q16539 whole entry): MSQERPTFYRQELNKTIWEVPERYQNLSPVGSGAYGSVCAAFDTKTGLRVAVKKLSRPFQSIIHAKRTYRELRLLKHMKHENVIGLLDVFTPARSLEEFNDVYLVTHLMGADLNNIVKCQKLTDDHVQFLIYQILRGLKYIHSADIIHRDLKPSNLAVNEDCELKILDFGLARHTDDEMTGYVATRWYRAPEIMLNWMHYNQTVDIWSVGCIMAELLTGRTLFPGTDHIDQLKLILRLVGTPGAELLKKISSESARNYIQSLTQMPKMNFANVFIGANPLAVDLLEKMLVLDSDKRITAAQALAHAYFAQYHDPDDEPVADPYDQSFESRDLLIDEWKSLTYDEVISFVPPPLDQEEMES
Chain of cytochrome P450 2C9 (P11712 whole entry): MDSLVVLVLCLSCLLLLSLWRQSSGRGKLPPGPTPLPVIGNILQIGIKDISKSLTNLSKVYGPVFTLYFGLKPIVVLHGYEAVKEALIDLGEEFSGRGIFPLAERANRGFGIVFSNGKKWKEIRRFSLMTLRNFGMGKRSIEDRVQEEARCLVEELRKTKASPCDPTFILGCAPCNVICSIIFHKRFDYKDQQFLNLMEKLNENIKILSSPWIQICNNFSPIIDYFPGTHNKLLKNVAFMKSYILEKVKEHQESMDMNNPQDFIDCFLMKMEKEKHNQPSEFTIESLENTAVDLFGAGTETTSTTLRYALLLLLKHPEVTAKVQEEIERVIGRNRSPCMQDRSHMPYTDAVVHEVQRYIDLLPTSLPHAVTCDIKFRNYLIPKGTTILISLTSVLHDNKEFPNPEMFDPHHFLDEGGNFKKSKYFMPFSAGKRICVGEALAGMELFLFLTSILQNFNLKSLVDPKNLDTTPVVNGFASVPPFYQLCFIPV

Structure (SMILES)	inhibition at 1 µM (p38 MAP-kinase)	IC50 (cytochrome P450 2C9)	solubility at 2 h [1]
COc1c(NC(=O)c2cc3cccc(CN4CCN(C(=O)[C@@H]5CCCN5C)CC4)c3n2C)cc(C(C)(C)C)cc1NS(C)(=O)=O [1(1), (S)-1-methyl-7-[4-(1-methyl-pyrrolidine-2-carbonyl)-piperazin-1-ylmethyl]-1H-indole-2-carboxylic acid(5-tert-butyl-3-methanesulphonylamino-2-methoxy-phenyl)-amide]	99.6%	2130 nM	340 µg/mL (≈ 532 µM)
COc1c(NC(=O)c2cc3cccc(CN4CCC(C(=O)N5CC[C@H](N(C)C)C5)CC4)c3n2C)cc(C(C)(C)C)cc1NS(C)(=O)=O [1(23), (S)-7-[4-(3-dimethylamino-pyrrolidine-1-carbonyl)-piperidin-1-ylmethyl]-1-methyl-1H-indole-2-carboxylic acid-(5-tert-butyl-3-methanesulphonylamino-2-methoxy-phenyl)-amide]	97%	1770 nM	280 µg/mL (≈ 420 µM)
COc1c(NC(=O)c2cc3cccc(CN4CCN(C(=O)[C@@H]5CCCN5C)CC4)c3n2C)cc(C(F)(F)C(F)(F)F)cc1NS(C)(=O)=O [Example 14, (S)-1-methyl-7-[4-(1-methyl-pyrrolidine-2-carbonyl)-piperazin-1-ylmethyl]-1H-indole-2-carboxylic acid-(3-methanesulphonylamino-2-methoxy-5-pentafluoroethyl-phenyl)-amide]	98.8%	1430 nM	27 µg/mL (≈ 38.5 µM)
CCOc1c(NC(=O)c2cc3cccc(CN4CCN(C(=O)[C@@H]5CCCN5C)CC4)c3n2C)cc(C(C)(C)C)cc1NS(C)(=O)=O [11(7), (S)-1-methyl-7-[4-(1-methyl-pyrrolidine-2-carbonyl)-piperazin-1-ylmethyl]-1H-indole-2-carboxylic acid-(5-tert-butyl-3-methanesulphonylamino-2-ethoxy-phenyl)-amide]	99.3%	410 nM	110 µg/mL (≈ 168 µM)
COc1c(NC(=O)c2cc3cccc(CN4CCN(C(=O)C5CCCN(C)C5)CC4)c3n2C)cc(C(C)(C)C)cc1NS(C)(=O)=O (stereo not drawn) [Example 4, 1-methyl-7-[4-(1-methyl-piperidine-3-carbonyl)-piperazin-1-ylmethyl]-1H-indole-2-carboxylic acid (5-tert-butyl-3-methanesulphonylamino-2-methoxy-phenyl)-amide]	99.4%	440 nM	78 µg/mL (≈ 119 µM)
COc1c(NC(=O)c2cc3cccc(CN4CCN(C(=O)C5CNC5)CC4)c3n2C)cc(C(C)(C)C)cc1NS(C)(=O)=O [Example 3, 7-[4-(azetidine-3-carbonyl)-piperazin-1-ylmethyl]-1-methyl-1H-indole-2-carboxylic acid (5-tert-butyl-3-methanesulphonylamino-2-methoxy-phenyl)-amide]	99%	1260 nM	85 µg/mL (≈ 139 µM)
COc1c(CN(C(C)C)C(C)C)cc(C(C)(C)C)cc1NC(=O)c1cc2cccc(CN3CCN(C(=O)[C@@H]4CCCN4C)CC3)c2n1C [9(1), (S)-1-methyl-7-[4-(1-methyl-pyrrolidine-2-carbonyl)-piperazin-1-ylmethyl]-1H-indole-2-carboxylic acid-{5-tert-butyl-3-[(diisopropylamino)-methyl]-2-methoxy-phenyl}-amide]	95.8%	6700 nM	570 µg/mL (≈ 865 µM)
COc1c(NC(=O)c2cc3cccc(CN4CCN(C(=O)CN5CC[C@@H](N(C)C)C5)CC4)c3n2C)cc(C(C)(C)C)cc1NS(C)(=O)=O [6(2), (R)-7-{4-[2-(3-dimethylamino-pyrrolidin-1-yl)-acetyl]-piperazin-1-ylmethyl}-1-methyl-1H-indole-2-carboxylic acid-(5-tert-butyl-3-methanesulphonylamino-2-methoxy-phenyl)-amide]	98.9%	700 nM	> 1000 µg/mL
COc1c(NC(=O)c2cc3cccc(CN4CCN(C(=O)C5CCN5C)CC4)c3n2C)cc(C(C)(C)C)cc1NS(C)(=O)=O (stereo not drawn) [1(5), 1-methyl-7-[4-(1-methyl-azetidine-2-carbonyl)-piperazin-1-ylmethyl]-1H-indole-2-carboxylic acid(5-tert-butyl-3-methanesulphonylamino-2-methoxy-phenyl)-amide]	99%	1630 nM	670 µg/mL (≈ 1070 µM)
COc1c(CO)cc(C(C)(C)C)cc1NC(=O)c1cc2cccc(CN3CCN(C(=O)[C@@H]4CCCN4C)CC3)c2n1C [Example 15, (S)-1-methyl-7-[4-(1-methyl-pyrrolidine-2-carbonyl)-piperazin-1-ylmethyl]-1H-indole-2-carboxylic acid-(5-tert-butyl-3-hydroxymethyl-2-methoxy-phenyl)-amide]	99.4%	2540 nM	230 µg/mL (≈ 399 µM)

Continued, values first:

inhibition at 1 µM (p38 MAP-kinase)	IC50 (cytochrome P450 2C9)	solubility at 2 h [1]	Structure (SMILES)
98.2%	3460 nM	630 µg/mL (≈ 1050 µM)	COc1c(NC(C)=O)cc(C(C)(C)C)cc1NC(=O)c1cc2cccc(CN3CCN(C(=O)[C@@H]4CCCN4C)CC3)c2n1C [12(2), (S)-1-methyl-7-[4-(1-methyl-pyrrolidine-2-carbonyl)-piperazin-1-ylmethyl]-1H-indole-2-carboxylic acid-(3-acetylamino-5-tert-butyl-2-methoxy-phenyl)-amide]
98.9%	780 nM	170 µg/mL (≈ 267 µM)	COc1c(NC(=O)c2cc3cccc(CC4CCN(C(=O)[C@@H]5CCCN5C)CC4)c3n2C)cc(C(C)(C)C)cc1NS(C)(=O)=O [1(7), (S)-1-methyl-7-[1-(1-methyl-pyrrolidine-2-carbonyl)-piperidin-4-ylmethyl]-1H-indole-2-carboxylic acid(5-tert-butyl-3-methanesulphonylamino-2-methoxy-phenyl)-amide]
98.7%	560 nM	40 µg/mL (≈ 61.3 µM)	COc1c(NC(=O)c2cc3cccc(CN4CCN(C(=O)C(C)N5CCCC5)CC4)c3n2C)cc(C(C)(C)C)cc1NS(C)(=O)=O (stereo not drawn) [1(13), 1-methyl-7-[4-(2-pyrrolidin-1-yl-propionyl)-piperazin-1-ylmethyl]-1H-indole-2-carboxylic acid-(5-tert-butyl-3-methanesulphonylamino-2-methoxy-phenyl)-amide]
97.3%	2150 nM	91 µg/mL (≈ 144 µM)	COc1c(NC(=O)c2cc3cccc(CN4CCN(C(=O)[C@@H]5CCCN5C)CC4)c3n2C)cc(C(C)(C)C)cc1NC(=O)C(C)C [12(3), (S)-1-methyl-7-[4-(1-methyl-pyrrolidine-2-carbonyl)-piperazin-1-ylmethyl]-1H-indole-2-carboxylic acid-(5-tert-butyl-3-isobutyrylamino-2-methoxy-phenyl)-amide]
99.1%	990 nM	46 µg/mL (≈ 68.9 µM)	COc1c(NC(=O)c2cc3cccc(CN4CCN(C(=O)CN5CCN(C)CC5)CC4)c3n2C)cc(C(C)(C)C)cc1NS(C)(=O)=O [1(17), 1-methyl-7-{4-[2-(4-methyl-piperazin-1-yl)-acetyl]-piperazin-1-ylmethyl}-1H-indole-2-carboxylic acid-(5-tert-butyl-3-methanesulphonylamino-2-methoxy-phenyl)-amide]
